For the experiment, the system named is IGFBP3 protein. In words: Quantification of IGFBP3 protein by ELISA in supernatant of normal human keratinocytes. Format: cell-based. The conditions noted are these: IGF-1 at 100 ng/ml, 24 h, related to non-treated cells (100), NS. As to the method: Normal human keratinocytes were cultured up to 70% confluence, then treated for 24 h with IGF-1 at 100 ng/ml or the Bixa orellana extract obtained according to Example 1a) before mixing with maltodextrin and spray-drying at 0.1% or 0.05% (w/w in the total medium) for 24 h. The cells are lysed for assaying the DNA, and the supernatant is used for the quantification of the IGFBP3 protein by ELISA according to the protocol of the supplier of the ELISA kit (LSBio Human IGFBP3 ELISA Kit ref LS-F24538 lot 103180).
The results are related to non-treated cells. A statistical t-test test is carried out, and the means are compared.
On the technique in general: ELISA stands for enzyme-linked immunosorbent assay.

These results are taken from patent US20210259949A1, “USE OF A BIXA ORELLANA EXTRACT” (BASF Beauty Care Solutions France SAS, priority 2018, published 2021).

“IGF-1: growth factor insulin-like growth factor type 1 (IGF1), used at 100 ng/ml”: the “IGFBP3 protein, Mean” value worked out at 128.195.
